Results on three compounds are retold here after patent publication US11739069B2, “Modulators of resistant androgen receptor” (priority 2012, dated 2023).

The structures appear in SMILES notation. Numbering of substitutions follows the chain as printed. Entries after “also recorded” stand apart in the source; their conditions may differ.

In assay [1] the test system is AR WT. The assay can be described thus: AR signaling and PARP cleavage in cells expressing AR WT (FIG. 27). It counts as cell-based.
Assay [2] relates to CWR22PC cells expressing wild type androgen receptor. As to the kind of experiment: In vitro cell viability assay (CellTiterGLO), CWR22PC cells expressing wild-type AR (FIG. 18). It is filed as cell-based. The settings on record: 10 uM, days 1, 4, 7. As to the method:
(§1) Compounds of the present invention were also assayed in an in vitro cell viability assay in CWR22PC cancer cells. A representative procedure follows. CWR22PC cells ectopically expressing wild-type AR or AR F876L, cultured in full-serum containing media, were treated with vehicle (DMSO) or 10 uM of enzalutamide or compound I-1. CellTiterGLO assay was performed on days 1, 4, and 7 to determine cell viability. Results of a cell viability assay in CWR22PC cells are depicted in FIG. 18. On the y-axis RLU means relative light units. More light […] means more viable cells. In some embodiments, a provided compound is considered to be a modulator of a tested AR if it results in similar effects on cell viability as compared with a reference androgen or anti-androgen.
A general note: Cellular ATP, detected with luciferase, serves as a proxy for viable cell number.

For assay [3], the target named is T1, AR F876L (Homo sapiens, UniProt P10275, DEL79-80/DUP473-473/F877L).
T1 construct: expressed in transfected cells
T1 sequence (P10275 with tags, fused parts or gaps DEL79-80/DUP473-473/F877L): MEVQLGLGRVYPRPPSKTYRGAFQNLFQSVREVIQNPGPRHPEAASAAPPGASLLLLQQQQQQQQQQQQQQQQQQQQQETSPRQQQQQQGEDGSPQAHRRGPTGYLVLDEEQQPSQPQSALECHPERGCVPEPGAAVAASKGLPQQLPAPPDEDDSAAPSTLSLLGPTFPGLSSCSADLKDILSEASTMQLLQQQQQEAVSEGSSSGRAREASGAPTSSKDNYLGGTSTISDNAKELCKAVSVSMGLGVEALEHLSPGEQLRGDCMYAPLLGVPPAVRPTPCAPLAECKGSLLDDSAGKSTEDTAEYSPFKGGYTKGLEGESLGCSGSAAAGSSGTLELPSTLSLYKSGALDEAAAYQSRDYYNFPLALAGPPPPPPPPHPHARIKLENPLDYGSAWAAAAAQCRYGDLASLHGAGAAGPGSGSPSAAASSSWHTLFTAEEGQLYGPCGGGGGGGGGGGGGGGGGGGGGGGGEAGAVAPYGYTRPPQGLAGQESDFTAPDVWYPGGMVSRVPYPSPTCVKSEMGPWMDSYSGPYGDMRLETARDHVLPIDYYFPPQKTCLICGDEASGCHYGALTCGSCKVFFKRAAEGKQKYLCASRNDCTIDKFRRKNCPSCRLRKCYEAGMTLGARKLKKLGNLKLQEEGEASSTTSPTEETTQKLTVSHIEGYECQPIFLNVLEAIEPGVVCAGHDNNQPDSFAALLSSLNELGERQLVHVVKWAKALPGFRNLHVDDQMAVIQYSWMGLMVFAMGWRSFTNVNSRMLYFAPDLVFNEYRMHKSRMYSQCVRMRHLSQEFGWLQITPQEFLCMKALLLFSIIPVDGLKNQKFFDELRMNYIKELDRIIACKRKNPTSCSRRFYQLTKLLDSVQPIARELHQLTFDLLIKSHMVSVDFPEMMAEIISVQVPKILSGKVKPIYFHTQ
As to the kind of experiment: AR signaling and PARP cleavage in cells expressing AR F876L (FIG. 27). It is filed as cell-based.

For the next assay, the target named is T2, AR (Homo sapiens, UniProt P10275, DEL79-80/DUP473-473).
T2 construct: expressed in transfected cells; host or cells: CV1 cells
T2 sequence (P10275 with tags, fused parts or gaps DEL79-80/DUP473-473): T1 sequence (P10275 with tags, fused parts or gaps DEL79-80/DUP473-473/F877L) with L876F
The assay can be described thus: AR luciferase reporter assay, competition with DHT (FIG. 25). It counts as cell-based. As to the method:
(§2) Compounds of the present invention were assayed in an in vitro AR luciferase reporter assay reporter assay, which can be used to determine the effect of compounds on AR transcriptional activity. CV1 cells were engineered to express an AR-regulated luciferase reporter, such that luciferase expression indicates AR transcriptional activity. A representative procedure for this assay follows.
(§3) CV1 cells (10^6 cells/10 cm plate) were cotransfected with 50 ng of SV40 Renilla Luciferase, 5 ug of ARE(4X)-Luciferase, and […] of one pWZL-AR expression construct using Lipofectamine 2000 (Invitrogen). Transfection media was removed 4-6 hours later and replaced with phenol red free DME-HG containing 10% charcoal stripped serum. The following day each plate was split into 24- or 48-well plates, in 10% CSS media, containing the indicated drugs in triplicate. Twenty-four to forty-eight hours later, luciferase activity was assayed using Dual-Luciferase Reporter Assay System (Promega) on a 96-well luminometer (Turner Biosystems). In some embodiments, a provided compound is considered to be a modulator of a tested AR if it results in similar effects on induced expression of luciferase in the luciferase reporter assay as compared with a reference androgen or anti-androgen.
For orientation: In a reporter assay the amount or activity of a reporter protein is the signal.

For assay [4], the system named is VCaP cells expressing mutant F876L androgen receptor. The assay can be described thus: In vitro cell viability assay, VCaP cells expressing mutant F876L AR (FIG. 17). It counts as cell-based.
Assay [5] concerns VCaP cells expressing wild type androgen receptor. As to the kind of experiment: In vitro cell viability assay, VCaP cells expressing wild type AR (FIG. 17). It counts as cell-based.
Assay [6] deals with T1, AR F876L. The assay can be described thus: AR luciferase reporter assay, AR F876L versus AR WT (FIG. 26). It is filed as cell-based. As to the method: as §2, §3
The test system of assay [7] is CWR22PC cells expressing mutant F876L androgen receptor. As to the kind of experiment: In vitro cell viability assay (CellTiterGLO), CWR22PC cells expressing AR F876L (FIG. 18). It counts as cell-based. To be noted: 10 uM, days 1, 4, 7. As for the experimental part: as §1
The target in assay [8] is AR WT. To be noted: LNCaP cells ectopically expressing AR WT; compared with AR F876L cells.
Experimental: The cells were propagated in RPMI media supplemented with 10% CSS (charcoal-stripped, dextran-treated fetal bovine serum). Cells were trypsinized, washed in PBS, and triplicate cell samples were mixed with 20,000 cpm 18F-FDHT and increasing amounts of cold competitor (0.1 nM to 10 uM). The solutions were shaken on an orbital shaker at ambient temperature, and after 1 hour the cells were isolated and washed with ice-cold Tris-buffered saline using a Brandel cell harvester (Gaithersburg, Md.). All the isolated cell samples were counted using a scintillation counter, with appropriate standards of total activity and blank controls, and the specific uptake of ^18F-FDHT determined.
In assay [9] the target is T3, mutant AR T877A (Homo sapiens, UniProt P10275, DEL79-80/DUP473-473/T878A).
T3 sequence (P10275 with tags, fused parts or gaps DEL79-80/DUP473-473/T878A): T1 sequence (P10275 with tags, fused parts or gaps DEL79-80/DUP473-473/F877L) with L876F, T877A
The settings on record: cited from earlier work.

The target of assay [10] is T3, mutant AR T877A. The settings on record: Ozers et al., Biochemistry (2007) 46, 683; cited from earlier work.

With `CNC(=O)c1ccc(N2C(=S)N(c3ccc(C#N)c(C(F)(F)F)c3)C(=O)[C@@]23CCCC(C)(C)C3)cc1F` (stereo in doubt) [Compound I-1, 4-(3-(4-cyano-3-(trifluoromethyl)phenyl)-7,7-dimethyl-4-oxo-2-thioxo-1,3-diazaspiro[4.5]decan-1-yl)-2-fluoro-N-methylbenzamide], the “induction of PARP cleavage” value in the assay with AR WT [1] and on AR F876L [3] was “induce PARP cleavage” throughout. Besides, the “inhibition of AR signaling” value in the assay with AR WT [1] and against AR F876L [3] was “inhibit AR signaling” throughout. The “ability to kill or inhibit the growth of cells” value in assay [2] is “kill or inhibit the growth of CWR22PC cells”; in [4] it was “kill or inhibit the growth of VCaP cells”; in [5], “kill or inhibit the growth of VCaP cells”; in assay [7], “kill or inhibit the growth of CWR22PC cells”. Besides, the “competition with dihydrotestosterone (DHT) for AR binding and induction of AR-regulated luciferase” value on AR was “effectively competes with dihydrotestosterone (DHT)”. Besides, at AR F876L [6], the “potency as agonist for AR F876L compared with AR WT” value is listed as “more potent agonist for AR F876L than AR WT”.

`C[C@]12CCC(=O)C[C@@H]1CC[C@@H]1[C@@H]2CC[C@]2(C)[C@@H](O)CC[C@@H]12` [DHT, dihydrotestosterone]: the “IC50 for displacement of 18F-FDHT” value on AR WT [8] is reported as “comparable IC50”.

As for `CC(C)(O)C(=O)Nc1ccc([N+](=O)[O-])c(C(F)(F)F)c1` [hydroxyflutamide], the “agonist activity on mutant AR” value at mutant AR T877A [9] was “act as AR agonists; also recorded: confers agonism”. On mutant AR T877A [10], the “binding affinity to mutant AR T877A compared with AR WT” value is “higher affinity”.
